In patent US7358276B2, “2-Oxo-1-pyrrolidine derivatives, processes for preparing them and their uses” (UCB, S.A., priority 2000, dated 2008):

Tests used:
[1] = test system: audiogenic seizures in sound-susceptible mice; experiment: Animal model of sound-susceptible mice (audiogenic seizures); type: in vivo; conditions: intraperitoneally 60 minutes before induction of audiogenic seizures; doses given in mol/kg
From the text: The activity of the compounds of formula I, or their pharmaceutically acceptable salts, as anticonvulsants can be determined in the audiogenic seizures model. The objective of this test is to evaluate the anticonvulsant potential of a compound by means of audiogenic seizures induced in sound-susceptible mice, a genetic animal model with reflex seizures. In this model of primary generalised epilepsy, seizures are evoked without electrical or chemical stimulation and the seizure types are, at least in part, similar in their clinical phenomenology to seizures occurring in man (Löscher W. & Schmidt D., Epilepsy Res. (1998), 2, p. 145-181; Buchhalter J. R., Epilepsia (1993), 34, S31-S41). Results obtained with compounds of formula I are indicative of a strong pharmacological effect.
The objective of this test is to evaluate the anticonvulsant potency of a compound in sound-susceptible mice, a genetic animal model with reflex seizures. In this model of primary generalised epilepsy, seizures are evoked without electrical or chemical stimulation and the seizure types are, at least in part, similar in their clinical phenomenology to seizures occuring in man (Löscher W. & Schmidt D., Epilepsy Res. (1998), 2, 145-181; Buchhalter J. R., Epilepsia (1993), 34, S31-S41).
Male or female genetically sound-sensitive mice (14-28 g; N=10), derived from a DBA strain originally selected by Dr. Lehmann of the Laboratory of Acoustic Physiology (Paris) and bred in the UCB Pharma Sector husbandry unit since 1978, are used. The experimental design consisted of several groups, one group receiving the vehicle control and the other groups different doses of the test-compound. The compounds are administered intraperitoneally 60 minutes before the induction of audiogenic seizures.
For testing, the animals are placed in small cages, one mouse per cage, in a sound-attenuated chamber. After a period of orientation of 30 seconds, the acoustic stimulus (90 dB, 10-20 kHz) is delivered for 30 seconds via loudspeakers positioned above each cage. During this interval, the mice are observed and the presence of the 3 phases of the seizure activity namely wild running, clonic and tonic convulsions, is recorded. The proportion of mice protected against wild running, clonic and tonic convulsions, respectively, is calculated.
For active compounds, an ED50 value, i.e. the dose producing 50% protection relative to the control group, together with 95% confidence limits, was calculated using a Probit Analysis (SAS/STAT® Software, version 6.09, PROBIT procedure) of the proportions of protected mice for each of the 3 phases of the seizure activity.

[2] = target: T1, Levetiracetam Binding Site (LBS), rat cerebral cortex membranes (Rattus norvegicus, UniProt Q02563); experiment: LBS binding assay (competitive binding, [3H]-2-[4-(3-azidophenyl)-2-oxo-1-pyrrolidinyl]butanamide); conditions: 4° C., 120 min
T1 construct: The crude membrane pellet obtained is resuspended in 50 mmol/l Tris-HCl (pH 7.4); from tissue; host or cells: rat cerebral cortex crude membranes (male Sprague-Dawley)
T1 sequence (Q02563 whole entry): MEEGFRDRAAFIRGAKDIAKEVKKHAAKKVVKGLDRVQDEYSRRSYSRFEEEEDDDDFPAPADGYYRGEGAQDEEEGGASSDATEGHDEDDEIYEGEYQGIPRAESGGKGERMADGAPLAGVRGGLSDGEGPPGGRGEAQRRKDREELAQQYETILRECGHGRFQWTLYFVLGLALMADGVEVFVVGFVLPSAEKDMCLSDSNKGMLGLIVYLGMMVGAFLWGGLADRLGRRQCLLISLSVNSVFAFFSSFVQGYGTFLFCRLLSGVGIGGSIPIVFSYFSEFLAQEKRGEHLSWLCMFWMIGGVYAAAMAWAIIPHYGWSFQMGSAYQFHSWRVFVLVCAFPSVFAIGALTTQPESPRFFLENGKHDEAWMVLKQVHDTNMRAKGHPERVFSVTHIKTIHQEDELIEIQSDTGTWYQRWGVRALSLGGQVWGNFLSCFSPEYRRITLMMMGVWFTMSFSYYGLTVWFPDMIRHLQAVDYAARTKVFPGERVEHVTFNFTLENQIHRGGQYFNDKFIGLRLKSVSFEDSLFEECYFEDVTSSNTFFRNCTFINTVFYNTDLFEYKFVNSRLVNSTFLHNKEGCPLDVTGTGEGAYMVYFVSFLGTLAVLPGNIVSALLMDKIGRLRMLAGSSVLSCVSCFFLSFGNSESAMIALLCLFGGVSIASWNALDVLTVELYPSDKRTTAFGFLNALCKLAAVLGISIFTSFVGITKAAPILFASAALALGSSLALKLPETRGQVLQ

Compound | ED50 (dose producing 50% protection against audiogenic seizures) [1] | pKi (affinity for the levetiracetam binding site) [2]
2-[4-(2,2-dibromovinyl)-2-oxo-1-pyrrolidinyl]butanamide [Compound 47] | Particularly promising activity | Particular affinity
CCCC(CN[C@@H](CC)C(N)=O)CC(=O)OCCC12CC3CC(CC(C3)C1)C2.Cl (mixture of isomers) [AA 3, 2-(1-adamantyl)ethyl 3-({[(1S)-1-(aminocarbonyl)propyl]amino}methyl)hexanoate hydrochloride] | Particularly promising activity | –
CCCCOC(=O)CC(CCC)CN[C@@H](CC)C(N)=O.Cl (mixture of isomers) [AA 4, butyl 3-({[(1S)-1-(aminocarbonyl)propyl]amino}methyl)hexanoate hydrochloride] | Particularly promising activity | –
CCCC(CN[C@@H](CC)C(N)=O)CC(=O)OC(C)C.Cl (mixture of isomers) [AA 5, isopropyl 3-({[(1S)-1-(aminocarbonyl)propyl]amino}methyl)hexanoate hydrochloride] | Particularly promising activity | –
CCCC1CC(=O)N([C@@H](CC)C(N)=O)C1 (single isomer, unassigned) [Compound 158] | Particularly promising activity | Particular affinity
CCCC1CC(=O)N([C@@H](CC)C(N)=O)C1 (single isomer, unassigned) [Compound 159] | Particularly promising activity | Particular affinity
CC[C@@H](C(N)=O)N1CC(n2cccc2)CC1=O (single isomer, unassigned) [Compound 223, 4-pyrol-pyrrolidin-2-one] | Particularly promising activity | Particular affinity
CCCC(CN[C@@H](CC)C(N)=O)CC(=O)OCC.Cl (stereo partly drawn) [AA 1, ethyl 3-({[(1S)-1-(aminocarbonyl)propyl]amino}methyl)hexanoate hydrochloride] | Particularly promising activity | –
CCCC(CN[C@@H](CC)C(N)=O)CC(=O)OCC.Cl (stereo partly drawn) [AA 2, ethyl 3-({[(1S)-1-(aminocarbonyl)propyl]amino}methyl)hexanoate hydrochloride] | Particularly promising activity | –
CC[C@@H](C(N)=O)N1CC(CBr)CC1=O (stereo partly drawn) [Compound 8, (2S)-2-[4-(bromomethyl)-2-oxo-1-pyrrolidinyl]butanamide] | – | Particular affinity
CC[C@@H](C(N)=O)N1CC(CBr)CC1=O (stereo partly drawn) [Compound 9] | Particularly promising activity | Particular affinity
CC[C@@H](C(N)=O)N1CC(CCl)CC1=O (stereo partly drawn) [Compound 30, (2S)-2-[4-(chloromethyl)-2-oxo-1-pyrrolidinyl]butanamide] | – | Particular affinity
CC[C@@H](C(N)=O)N1CC(COS(=O)(=O)c2ccc(C)cc2)CC1=O (stereo partly drawn) [Compound 31, {1-[(1S)-1-(aminocarbonyl)propyl]-5-oxo-3-pyrrolidinyl}methyl 4-methylbenzenesulfonate] | – | Particular affinity
CC[C@@H](C(N)=O)N1CC(CO[N+](=O)[O-])CC1=O (stereo partly drawn) [Compound 38, {1-[(1S)-1-(aminocarbonyl)propyl]-5-oxo-3-pyrrolidinyl}methyl Nitrate] | – | Particular affinity
CCC(C(N)=O)N1CC(CS(=O)(=O)c2ccccc2)CC1=O (stereo not drawn) [Compound 43] | – | Particular affinity
CC[C@@H](C(N)=O)N1CC(CN=C=S)CC1=O (stereo partly drawn) [Compound 49, (2S)-2-[4-(isothiocyanatomethyl)-2-oxo-1-pyrrolidinyl]butanamide] | – | Particular affinity
CC[C@@H](C(N)=O)N1CC(c2cccs2)CC1=O (stereo partly drawn) [Compound 72, (2S)-2-[2-oxo-4-(2-thienyl)-1-pyrrolidinyl]butanamide] | – | Particular affinity
CC[C@@H](C(N)=O)N1CC(c2ccsc2)CC1=O (stereo partly drawn) [Compound 88] | Particularly promising activity | Particular affinity
CC[C@@H](C(N)=O)N1CC(c2ccc(-c3ccccc3)cc2)CC1=O (stereo partly drawn) [Compound 98] | – | Particular affinity
CC[C@@H](C(N)=O)N1CC(CSC)CC1=O (stereo partly drawn) [Compound 100] | Particularly promising activity | Particular affinity
CCCC1CC(=O)N(C(C)C(N)=O)C1 (stereo not drawn) [Compound 119] | – | Particular affinity

Compound | ED50 (dose producing 50% protection against audiogenic seizures) [1] | pKi (affinity for the levetiracetam binding site) [2]
CCCC1CC(=O)N(C(CC)C(N)=O)C1 (stereo not drawn) [Compound 127, 2-(2-oxo-4-propyl-1-pyrrolidinyl)butanamide] | – | Particular affinity
CCCCCC1CC(=O)N(C(CC)C(N)=O)C1 (stereo not drawn) [Compound 142] | – | Particular affinity
CC[C@@H](C(N)=O)N1CC(CC(C)(C)C)CC1=O (stereo partly drawn) [Compound 149, (2S)-2-(4-neopentyl-2-oxo-1-pyrrolidinyl)butanamide] | – | Particular affinity
CCC1CC(=O)N([C@@H](CC)C(N)=O)C1 (stereo partly drawn) [Compound 151] | Particularly promising activity | Particular affinity
CCC1CC(=O)N([C@@H](CC)C(N)=O)C1 (stereo partly drawn) [Compound 152] | Particularly promising activity | Particular affinity
CCC(C(N)=O)N1CC(CC(F)F)CC1=O (stereo not drawn) [Compound 157, 2-[4-(2,2-difluoroethyl)-2-oxo-1-pyrrolidinyl]butanamide] | – | Particular affinity
CCC(C(N)=O)N1CC(C=C(C)C)CC1=O (stereo not drawn) [Compound 163, 2-(2-oxo-4-(2,2-dimethylvinyl)-1-pyrrolidinyl)butanamide] | – | Particular affinity
CCC(C(N)=O)N1CC(c2ccc(Cl)cc2)CC1=O (stereo not drawn) [Compound 169] | – | Particular affinity
CCC(C(N)=O)N1CC(c2cccc(Cl)c2)CC1=O (stereo not drawn) [Compound 170] | – | Particular affinity
CCC(C(N)=O)N1CC(c2ccccc2C(F)(F)F)CC1=O (stereo not drawn) [Compound 171] | – | Particular affinity
CCC(C(N)=O)N1CC(c2ccccc2F)CC1=O (stereo not drawn) [Compound 173] | – | Particular affinity
CCC(C(N)=O)N1CC(c2cccc(C)c2)CC1=O (stereo not drawn) [Compound 174] | – | Particular affinity
CCC(C(N)=O)N1CC(c2cccc(Cl)c2)CC1=O (stereo not drawn) [Compound 204, 2-[4-(3-chlorophenyl)-2-oxo-1-pyrrolidinyl]butanamide] | – | Particular affinity
CCC(C(N)=O)N1CC(c2cccc(Cl)c2)CC1=O (stereo not drawn) [Compound 205, 2-[4-(3-chlorophenyl)-2-oxo-1-pyrrolidinyl]butanamide] | – | Particular affinity
C#CC1CC(=O)N(C(CC)C(N)=O)C1 (stereo not drawn) [Compound 207, 2-(4-ethynyl-2-oxo-1-pyrrolidinyl)butanamide] | – | Particular affinity
CC[C@@H](C(N)=O)N1CC(CC(C)I)CC1=O (stereo partly drawn) [Compound 225, (2S)-2-[4-(2-iodopropyl)-2-oxo-1-pyrrolidinyl]butanamide] | – | Particular affinity
CC[C@@H](C(N)=O)N1CC(CC(C)I)CC1=O (stereo partly drawn) [Compound 226, (2S)-2-[4-(2-iodopropyl)-2-oxo-1-pyrrolidinyl]butanamide] | – | Particular affinity
CCCC1CC(=O)N(C(CCC)C(N)=O)C1 (stereo not drawn) [Compound 304] | – | Particular affinity
CCCC1CC(=O)N(C(CC2CC2)C(N)=O)C1 (stereo not drawn) [Compound 306] | – | Particular affinity
CCCC1CC(=O)N(C(Cc2cscn2)C(N)=O)C1 (stereo not drawn) [Compound 350] | – | Particular affinity
C=CCC(C(N)=O)N1CC(CCC)CC1=O (stereo not drawn) [Compound 351] | – | Particular affinity
